Assay results as given in US20250152720A1, “NEW CARBOHYDRATE DERIVATIVES AS MIMETICS OF BLOOD GROUP A AND B ANTIGENS” (REMAB THERAPEUTICS SL, priority 2022, published 2025).

Legend:
[1] = tested on: purified anti-B antibodies binding to red blood cells (Group B); test: Flow Cytometry inhibition of binding of purified anti-B antibodies to red blood cells (Group B) (Example 6.4); format: cell-based, human; conditions: anti-B 1 μg/mL
Protocol: The capacity to inhibit the binding of purified anti-B antibodies to red blood cells (Group B), measured by Flow Cytometry was tested. The Flow Cytometry assay was performed as follows: […] Afterwards, primary antibodies with the corresponding inhibitor were added. […] The samples were then incubated for 30 minutes at 37° C. (in the dark, mild horizontal shaking 30-40 rpm). Afterwards the samples were washed twice with PBS (centrifuged at 300 g. 3 minutes), and the supernatants were removed by aspiration. Then, 50 μL of the corresponding fluorochrome secondary anti-Ig antibody (7.5 μg/mL of goat anti-human IgG Alexa Fluor 647. Jackson Immunoresearch, West Grove, PA, USA, and 20 μg/mL of goat anti-human IgM C[…], Sigma-Aldrich, St. Louis, MO, USA) diluted in PBS were added to the RBC and incubated for 35 minutes at 37° C. (in the dark). The samples were washed twice with PBS (centrifuged at 300 g, 3 minutes), and the supernatants were removed by aspiration. Finally, the cells were resuspended in filtered PBS. Cells incubated with only PBS were used as a negative control for the experiment. Cells incubated only with secondary antibodies were considered background signals. Flow Cytometry analysis was performed on a Beckman Coulter Gallios Flow Cytometry analyzer using the blue (488 nm-22 mW) and red (635 nm-25 mW) solid-state laser as exciting source. Every single FACS determination recorded about 20,000 total events. Data was analyzed with KALUZA software (Beckman Coulter, CA, USA). The inhibitory capacity was expressed as a percentage of removal referred to the baseline condition (in ordinates).

[2] = tested on: purified human anti-B antibodies (IgG, IgM); conditions: IgG 0,095 ug/mL and IgM 0.045 ug/mL; increasing glycoconjugate concentrations (0-400 μg/mL); versus Comparative-1; FIG. 11
Protocol: (§1) ELISA: Maxisorp 96-well flat-bottom plates (Thermo Scientific, Waltham, MA, US) were coated for 18 hours at 4° C. with 50 μL/well of 10 μg/mL of the following PAA-glycoconjugates (as disclosed above in Table 3): 1 (B natural type2) and 5 (A natural type2); in coating buffer (0.05 M carbonate-bicarbonate, pH 9.6). Wells coated only with 50 μL/well of 10 μg/mL of PAA were considered the background of each sample assessed. After coating, the plates were washed three times with 200 μL/well of 0.1% (v/v) PBST using an autowasher and blocked for 1 hour at 4° C. with 100 μL/well of 0.1% (v/v) PBST+1% (w/v) BSA. Washing steps were repeated.
The inhibition samples were prepared in separate tubes using a fixed concentration of anti-A or anti-B antibodies, and an increasing concentration of the following polylysine glycoconjugate inhibitors, prepared in Example 4 (0-400 μg/mL): • Comparative-1 (comprising natural B type-II antigen) • Example 4.1 (comprising analogue of Example 1.1) • Comparative-2 (comprising natural A type-II antigen) • Example 4.8 (comprising analogue of Example 1.8) […]
(§2) After washing steps, plates were incubated for 0.5 hours at 25° C. […] The reaction was stopped with 50 μL/well of 3N HCl, and the resulting absorbance was registered at 490 nm using a microplate reader.
The percentage of removal (%) was calculated referred to the baseline condition (without inhibitor compound). […]

[3] = tested on: purified human anti-A antibodies (IgG, IgM); conditions: IgG 0.075 ug/mL and IgM 0.185 ug/mL; glycoconjugate at 10, 100 and 400 μg/mL; versus Comparative-2; FIG. 10
Protocol: as §1
The tubes were incubated for 18 hours at 4° C. and then a convenient dilution of inhibition mix to the ELISA plate (50 μL/vell) was added and incubated for 0.5 hours at 25° C. in a rocker.
as §2
To quantify the antibody levels. […]
The percentage of removal (%) was calculated referred to the baseline condition (without inhibitor compound).

## Polyfysine DP1000 conjugate with tetrasaccharide Glcα1-3(Fucα1-2)Galβ1-4GlcNAcβ (Example 1.1) (25%) [Example 4.1]
[1]; inhibitor 2.5 ug/mL
  percentage of removal referred to the baseline condition, IgG: 5.64%
  percentage of removal referred to the baseline condition, IgM: 6.35%
[2]
  capacity to inhibit human purified anti-B antibodies (percentage of removal): lower capacity to inhibit human purified anti-B antibodies than the natural comparator

## Polylysine DP1000 Conjugate with Galα1-3(Fucα1-2)Galβ1-4GlcNAcβB (Type2) Tetrasaccharide [Comparative-1, reference compound]
[1]; inhibitor 0.25 ug/mL
  percentage of removal referred to the baseline condition, IgG: 15.12%
  percentage of removal referred to the baseline condition, IgM: 26.4%

## Polylysine DP1000 Conjugate with Trisaccharide GlcNAcα1-3(Fucα1-2)Galβ (Example 1.8) (25%) [Example 4-8]
[3]
  capacity to inhibit human purified anti-A antibodies (percentage of removal): higher capacity to inhibit human purified anti-A antibodies than the comparator
